Tests used:
Phakopsora pachyrhizi = Phakopsora pachyrhizi test in soybean, preventive spray; type: in vivo; conditions: preventive spray on soybean plants, inoculated one day after treatment, greenhouse 25° C., 90% relative humidity, read-out: control (efficacy, disease severity rating) compared to the untreated check
Method: Example 8: Phakopsora pachyrhizi Test in Soybean
Compounds were dissolved in 2% DMSO/Acetone & then mixed with water to the calibrated spray volume of 50 mL and poured into the spray bottles for further applications.
To test the preventive activity of compounds, healthy young soybean plants raised in the greenhouse were sprayed with active compound preparation at the stated application rates inside the spray cabinets using hallowcone nozzles. One day after treatment, the plants were inoculated with spore suspension containing 2.1×10^6 Phakopsora pachyrhizi inoculum. The inoculated plants were then kept in greenhouse chamber at 25° C. temperature & 90% relative humidity for disease expression.
A visual assessment of compound's performance was carried out by rating the disease severity (0-100% scale) on treated plants on 3, 7, 10 & 15 days after application. Efficacy (% control) of the compounds was calculated by comparing the disease rating in the treatment with the one of the untreated control. The sprayed plants were also assessed for compound's plant compatibility by recording symptoms like necrosis, chlorosis & stunting.

Pyricularia oryzae = assay: microbe, parasite or virus in culture; type: cell-based; conditions: 168 h, read-out: control compared to the untreated check

Compound	pest or weed control at 500 ppm (Phakopsora pachyrhizi)	inhibition of growth at 300 ppm (Pyricularia oryzae)
CS(=O)(=NC(=O)c1ccc(-c2noc(C(F)(F)F)n2)cc1)c1ccc(Cl)cc1 (centres unmarked) [Compound 1, N-((4-chlorophenyl)(methyl)(oxo)-λ^6-sulfanylidene)-4-(5-(trifluoromethyl)-1,2,4-oxadiazol-3-yl)benzamide]	> 90%	–
CS(=O)(=NC(=O)c1ccc(-c2noc(C(F)(F)F)n2)cc1)c1ccccn1 (centres unmarked) [Compound 2, N-(methyl(oxo)(pyridin-2-yl)-λ^6-sulfanylidene)-4-(5-(trifluoromethyl)-1,2,4-oxadiazol-3-yl)benzamide]	> 90%	–
CS(=O)(=NC(=O)c1ccc(-c2noc(C(F)(F)F)n2)cc1)c1ccncc1 (centres unmarked) [Compound 4, N-(methyl(oxo)(pyridin-4-yl)-λ^6-sulfanylidene)-4-(5-(trifluoromethyl)-1,2,4-oxadiazol-3-yl)benzamide]	> 90%	–
CS(=O)(=NC(=O)c1ccc(-c2noc(C(F)(F)F)n2)cc1)c1cccc(F)c1 (centres unmarked) [Compound 5, N-((3-fluorophenyl)(methyl)(oxo)-λ^6-sulfanylidene)-4-(5-(trifluoromethyl)-1,2,4-oxadiazol-3-yl)benzamide]	> 90%	–
CS(=O)(=NC(=O)c1ccc(-c2noc(C(F)(F)F)n2)cc1)c1ccc(F)cc1 (centres unmarked) [Compound 6, N-((4-fluorophenyl)(methyl)(oxo)-λ^6-sulfanylidene)-4-(5-(trifluoromethyl)-1,2,4-oxadiazol-3-yl)benzamide]	> 90%	–
CS(=O)(=NC(=O)c1ccc(-c2noc(C(F)(F)F)n2)cc1)c1ccc(C(F)(F)F)cc1 (centres unmarked) [Compound 7, N-(methyl(oxo)(4-(trifluoromethyl)phenyl)-λ^6-sulfanylidene)-4-(5-(trifluoromethyl)-1,2,4-oxadiazol-3-yl)benzamide]	> 90%	–
CS(=O)(=NC(=O)c1ccc(-c2noc(C(F)(F)F)n2)cc1)c1ccccc1 (centres unmarked) [Compound 9, N-(methyl(oxo)(phenyl)-λ^6-sulfanylidene)-4-(5-(trifluoromethyl)-1,2,4-oxadiazol-3-yl)benzamide]	> 90%	–
COc1ccc(S(C)(=O)=NC(=O)c2ccc(-c3noc(C(F)(F)F)n3)cc2)cc1 (centres unmarked) [Compound 10, N-((4-methoxyphenyl)(methyl)(oxo)-λ^6-sulfanylidene)-4-(5-(trifluoromethyl)-1,2,4-oxadiazol-3-yl)benzamide]	> 90%	–
CS(=O)(=Nc1ccc(-c2noc(C(F)(F)F)n2)cc1)c1ccccc1F (centres unmarked) [Compound 12, (2-fluorophenyl)(methyl)((4-(5-(trifluoromethyl)-1,2,4-oxadiazol-3-yl)phenyl)imino)-λ^6-sulfanone]	> 90%	–
CS(=O)(=Nc1ccc(-c2noc(C(F)(F)F)n2)cc1)c1ccc(OC(F)(F)F)cc1 (centres unmarked) [Compound 21, methyl(4-(trifluoromethoxy)phenyl)((4-(5-(trifluoromethyl)-1,2,4-oxadiazol-3-yl)phenyl)imino)-λ^6-sulfanone]	> 90%	–
CS(=O)(=NCc1ccc(-c2noc(C(F)(F)F)n2)cc1)c1ccc(C(F)(F)F)cc1 (centres unmarked) [Compound 25, methyl((4-(5-(trifluoromethyl)-1,2,4-oxadiazol-3-yl)benzyl)imino)(4-(trifluoromethyl)phenyl)-λ^6-sulfanone]	> 90%	–
CS(=O)(=NCc1ccc(-c2noc(C(F)(F)F)n2)cc1)c1ccccc1 (centres unmarked) [Compound 26, methyl(phenyl)((4-(5-(trifluoromethyl)-1,2,4-oxadiazol-3-yl)benzyl)imino)-λ^6-sulfanone]	> 90%	–
CS(=O)(=NCc1ccc(-c2noc(C(F)(F)F)n2)cc1)c1ccc(Cl)cc1 (centres unmarked) [Compound 28, (4-chlorophenyl)(methyl)((4-(5-(trifluoromethyl)-1,2,4-oxadiazol-3-yl)benzyl)imino)-λ^6-sulfanone]	> 90%	–
CS(=O)(=NCc1ccc(-c2noc(C(F)(F)F)n2)cc1)c1ccccc1F (centres unmarked) [Compound 29, (2-fluorophenyl)(methyl)((4-(5-(trifluoromethyl)-1,2,4-oxadiazol-3-yl)benzyl)imino)-λ^6-sulfanone]	–	> 70%
Cc1ccc(S(C)(=O)=NC(=O)c2ccc(-c3noc(C(F)(F)F)n3)cc2)cc1 (centres unmarked) [Compound 30, N-(methyl(oxo)(p-tolyl)-λ^6-sulfaneylidene)-4-(5-(trifluoromethyl)-1,2,4-oxadiazol-3-yl)benzamide]	> 90%	–
CS(=O)(Cc1ccc(C#N)cc1)=NC(=O)c1ccc(-c2noc(C(F)(F)F)n2)cc1 (centres unmarked) [Compound 31, N-((4-cyanobenzyl)(methyl)(oxo)-λ^6-sulfaneylidene)-4-(5-(trifluoromethyl)-1,2,4-oxadiazol-3-yl)benzamide]	> 90%	–

Compound	pest or weed control at 500 ppm (Phakopsora pachyrhizi)	inhibition of growth at 300 ppm (Pyricularia oryzae)
CS(=O)(=NC(=O)c1ccc(-c2noc(C(F)(F)F)n2)cc1)c1c(F)cccc1F (centres unmarked) [Compound 36, N-((2,6-difluorophenyl)(methyl)(oxo)-λ^6-sulfaneylidene)-4-(5-(trifluoromethyl)-1,2,4-oxadiazol-3-yl)benzamide]	> 90%	–
CS(=O)(Cc1ccccc1F)=NC(=O)c1ccc(-c2noc(C(F)(F)F)n2)cc1 (centres unmarked) [Compound 38, N-((2-fluorobenzyl)(methyl)(oxo)-λ^6-sulfaneylidene)-4-(5-(trifluoromethyl)-1,2,4-oxadiazol-3-yl)benzamide]	> 90%	–
Cc1ccccc1CS(C)(=O)=NC(=O)c1ccc(-c2noc(C(F)(F)F)n2)cc1 (centres unmarked) [Compound 40, N-(methyl(2-methylbenzyl)(oxo)-λ^6-sulfaneylidene)-4-(5-(trifluoromethyl)-1,2,4-oxadiazol-3-yl)benzamide]	> 90%	–
CS(=O)(=NC(=O)c1ccc(-c2noc(C(F)(F)F)n2)cc1)c1ccc(C#N)cc1 (centres unmarked) [Compound 42, N-((4-cyanophenyl)(methyl)(oxo)-λ^6-sulfaneylidene)-4-(5-(trifluoromethyl)-1,2,4-oxadiazol-3-yl)benzamide]	> 90%	–
CS(=O)(Cc1ccc(C(F)(F)F)cc1)=NC(=O)c1ccc(-c2noc(C(F)(F)F)n2)cc1 (centres unmarked) [Compound 50, N-(methyl(oxo)(4-(trifluoromethyl)benzyl)-λ^6-sulfaneylidene)-4-(5-(trifluoromethyl)-1,2,4-oxadiazol-3-yl)benzamide]	> 90%	–
CS(=O)(Cc1c(Cl)cccc1Cl)=NC(=O)c1ccc(-c2noc(C(F)(F)F)n2)cc1 (centres unmarked) [Compound 51, N-((2,6-dichlorobenzyl)(methyl)(oxo)-λ^6-sulfaneylidene)-4-(5-(trifluoromethyl)-1,2,4-oxadiazol-3-yl)benzamide]	> 90%	–
Cc1csc(S(C)(=O)=NC(=O)c2ccc(-c3noc(C(F)(F)F)n3)cc2)n1 (centres unmarked) [Compound 53, N-(methyl(4-methylthiazol-2-yl)(oxo)-λ^6-sulfaneylidene)-4-(5-(trifluoromethyl)-1,2,4-oxadiazol-3-yl)benzamide]	> 90%	–
Cc1nnc(S(C)(=O)=NC(=O)c2ccc(-c3noc(C(F)(F)F)n3)cc2)s1 (centres unmarked) [Compound 54, N-(methyl(5-methyl-1,3,4-thiadiazol-2-yl)(oxo)-λ^6-sulfaneylidene)-4-(5-(trifluoromethyl)-1,2,4-oxadiazol-3-yl)benzamide]	> 90%	–
CS(=O)(=NC(=O)c1ccc(-c2noc(C(F)(F)F)n2)cc1)c1ccc(F)c(F)c1 (centres unmarked) [Compound 57, N-((3,4-difluorophenyl)(methyl)(oxo)-λ^6-sulfaneylidene)-4-(5-(trifluoromethyl)-1,2,4-oxadiazol-3-yl)benzamide]	> 90%	–
O=C(N=S1(=O)CCOCC1)c1ccc(-c2noc(C(F)(F)F)n2)cc1 [Compound 58, N-(4-oxido-1,4λ^6-oxathian-4-ylidene)-4-(5-(trifluoromethyl)-1,2,4-oxadiazol-3-yl)benzamide]	> 90%	–
CS(=O)(Cc1c(F)cccc1F)=Nc1ccc(-c2noc(C(F)(F)F)n2)cc1 (centres unmarked) [Compound 85, (2,6-difluorobenzyl)(methyl)((4-(5-(trifluoromethyl)-1,2,4-oxadiazol-3-yl)phenyl)imino)-λ^6-sulfanone]	> 90%	–
CS(=O)(Cc1ccc(F)cc1)=Nc1ccc(-c2noc(C(F)(F)F)n2)cc1 (centres unmarked) [Compound 89, (4-fluorobenzyl)(methyl)((4-(5-(trifluoromethyl)-1,2,4-oxadiazol-3-yl)phenyl)imino)-λ^6-sulfanone]	> 90%	–
CS(=O)(Cc1c(Cl)cccc1Cl)=Nc1ccc(-c2noc(C(F)(F)F)n2)cc1 (centres unmarked) [Compound 91, (2,6-dichlorobenzyl)(methyl)((4-(5-(trifluoromethyl)-1,2,4-oxadiazol-3-yl)phenyl)imino)-λ^6-sulfanone]	> 90%	–
CS(=O)(Cc1ccc(Br)cc1)=Nc1ccc(-c2noc(C(F)(F)F)n2)cc1 (centres unmarked) [Compound 92, (4-bromobenzyl)(methyl)((4-(5-(trifluoromethyl)-1,2,4-oxadiazol-3-yl)phenyl)imino)-λ^6-sulfanone]	> 90%	–
CS(=O)(=Nc1ccc(-c2noc(C(F)(F)F)n2)cc1)c1ccc(F)c(F)c1 (centres unmarked) [Compound 97, (3,4-difluorophenyl)(methyl)((4-(5-(trifluoromethyl)-1,2,4-oxadiazol-3-yl)phenyl)imino)-λ^6-sulfanone]	–	> 70%
CS(=O)(=Nc1ccc(-c2noc(C(F)(F)F)n2)nc1)c1ccccn1 (centres unmarked) [Compound 110, methyl(pyridin-2-yl)((6-(5-(trifluoromethyl)-1,2,4-oxadiazol-3-yl)pyridin-3-yl)imino)-λ^6-sulfanone]	> 90%	–

— patent publication US11286242B2 (priority 2018, dated 2022)
